The subject of series [1] is endogenous serotonin in the brain. The series is described as follows: biochemical assay of endogenous serotonin in the brain of rats after oral administration of a single dose. The conditions noted are these: orally, single dose of 10 mg/kg, Wistar male adult rats. It is filed as in vivo. As for the experimental part: The compounds according to the invention show remarkable pharmacological activities, in particular on the central nervous system. These assays were carried out after administration orally of a single dose of 10 mg/kg in Wistar male adult rats.

A short description of series [2]: acute toxicity in the mouse (LD50). Conditions: in vivo, po, orally. As for the experimental part: The acute toxicities of the derivatives according to the invention in the mouse are very much less than those of L 5-HTP. Thus the LD50's of all of the compounds according to the invention are higher than 1250 mg/kg, whereas the LD50 (orally) of L 5-HTP is equal to 700 mg/kg.

With `N[C@@H](Cc1c[nH]c2ccc(O)cc12)C(=O)O` [(L)5 HTP, 5-hydroxy-tryptophane, reference compound], in series [1], the “% increase of brain serotonin” value came to 10%. Also, the LD50 in series [2] is 700 mg/kg.

Take `CCOC(=O)COC(=O)[C@@H](N)Cc1c[nH]c2ccc(O)cc12` [Example 6b, Ethyl L-2-[3-(5-hydroxy 3-indolyl) 2-aminopropionyloxy]acetate]: the “% increase of brain serotonin” value in series [1] was found to be 22%.

As for `CCCCOC(=O)COC(=O)[C@@H](N)Cc1c[nH]c2ccc(O)cc12` [Example 8b, n-butyl L-2-[3-(5-hydroxy 3-indolyl) 2-aminopropionyloxy]acetate], the “% increase of brain serotonin” value in series [1] is 20%.

For the compound `CCCCCCCCOC(=O)COC(=O)[C@@H](N)Cc1c[nH]c2ccc(O)cc12` [Example 12b, n-octyl L-2-[3-(5-hydroxy 3-indolyl) 2-aminopropionyloxy]acetate], the “% increase of brain serotonin” value in series [1] amounted to 15%.

Regarding `CCCCCCCCCCCCOC(=O)COC(=O)[C@@H](N)Cc1c[nH]c2ccc(O)cc12` [Example 13b, n-dodecyl L-2-[3-(5-hydroxy 3-indolyl) 2-aminopropionyloxy]acetate], the “% increase of brain serotonin” value in series [1] was 26%.

Consider `CC(OC(=O)COC(=O)[C@@H](N)Cc1c[nH]c2ccc(O)cc12)C(C)(C)C` (stereo partly drawn) [Example 14c, (3,3-dimethyl) 2-butyl L-2-[3-(5-hydroxy 3-indolyl) 2-aminopropionyloxy]acetate], for which, in series [1], the “% increase of brain serotonin” value amounted to 32%.

Regarding `N[C@@H](Cc1c[nH]c2ccc(O)cc12)C(=O)OCC(=O)OCC12CC3CC(CC(C3)C1)C2` [Example 15b, 1-adamantyl methyl L-2-[3-(5-hydroxy 3-indolyl) 2-aminopropionyloxy]acetate], in series [1], the “% increase of brain serotonin” value is on record as 17%.

What is called LD50 is the dose at which mortality reaches 50%. Lower therefore signals a more toxic substance.

Source of the values: patent US4456611A, “Derivatives of 2-[3-(3-indoly)2-amino propionyloxy] acetic acid, and seritoning increasing use thereof” (Laboratoires Panmedica, priority 1981, dated 1984).
